MIC, fractional inhibitory concentration index (FICI) and inhibition data for 5 compounds are collected here from ChEMBL document CHEMBL1687822, “Inhibition of bacterial multidrug resistance by celecoxib, a cyclooxygenase-2 inhibitor” (2011).

Each structure is given as a SMILES string.

For test [1], the system named is Staphylococcus aureus. As to the kind of experiment: Antibacterial activity against Staphylococcus aureus ATCC 29213. It is filed as functional.
In test [2] the test system is Staphylococcus aureus. The test is described as follows: Antibacterial activity against methicillin-resistant Staphylococcus aureus ATCC 335913. It is filed as functional.
The subject of test [3] is Mycolicibacterium smegmatis. As to the kind of experiment: Antibacterial activity against Mycobacterium smegmatis MC2 155 ATCC. It counts as functional.
The subject of test [4] is Staphylococcus aureus. As to the kind of experiment: Inhibition of MDR1-mediated […] in Staphylococcus aureus ATCC 29213 assessed as fractional inhibitory concentration index after 24 to 48 hrs in presence of ampicillin.
For test [5], the system named is Staphylococcus aureus. The test is described as follows: Inhibition of MDR1-mediated methicillin-resistant Staphylococcus aureus ATCC 335913 assessed as fractional inhibitory concentration index after 24 to 48 hrs in presence of ampicillin.
In test [6] the test system is Mycolicibacterium smegmatis MC2 155. The test is described as follows: Inhibition of MDR1-mediated Mycobacterium smegmatis MC2 155 ATCC assessed as fractional inhibitory concentration index after 24 to 48 hrs in presence of ampicillin.
The subject of test [7] is Staphylococcus aureus. The test is described as follows: Inhibition of MDR1-mediated […] in Staphylococcus aureus ATCC 29213 assessed as fractional inhibitory concentration index after 24 to 48 hrs in presence of kanamycin.
Test [8] has as its system Staphylococcus aureus. The test is described as follows: Inhibition of MDR1-mediated methicillin-resistant Staphylococcus aureus ATCC 335913 assessed as fractional inhibitory concentration index after 24 to 48 hrs in presence of kanamycin.
For test [9], the system named is Mycolicibacterium smegmatis MC2 155. The test is described as follows: Inhibition of MDR1-mediated Mycobacterium smegmatis MC2 155 ATCC assessed as fractional inhibitory concentration index after 24 to 48 hrs in presence of kanamycin.
Test [10] has as its system Staphylococcus aureus. As to the kind of experiment: Inhibition of MDR1-mediated […] in Staphylococcus aureus ATCC 29213 assessed as fractional inhibitory concentration index after 24 to 48 hrs in presence of chloramphenicol.
Test [11] has as its system Staphylococcus aureus. The test is described as follows: Inhibition of MDR1-mediated methicillin-resistant Staphylococcus aureus ATCC 335913 assessed as fractional inhibitory concentration index after 24 to 48 hrs in presence of chloramphenicol.
For test [12], the system named is Mycolicibacterium smegmatis MC2 155. The test is described as follows: Inhibition of MDR1-mediated Mycobacterium smegmatis MC2 155 ATCC assessed as fractional inhibitory concentration index after 24 to 48 hrs in presence of chloramphenicol.
Test [13] concerns Staphylococcus aureus. The test is described as follows: Inhibition of MDR1-mediated […] in Staphylococcus aureus ATCC 29213 assessed as fractional inhibitory concentration index after 24 to 48 hrs in presence of ciprofloxacin.
In test [14] the test system is Staphylococcus aureus. As to the kind of experiment: Inhibition of MDR1-mediated methicillin-resistant Staphylococcus aureus ATCC 335913 assessed as fractional inhibitory concentration index after 24 to 48 hrs in presence of ciprofloxacin.
Test [15] concerns Mycolicibacterium smegmatis MC2 155. As to the kind of experiment: Inhibition of MDR1-mediated Mycobacterium smegmatis MC2 155 ATCC assessed as fractional inhibitory concentration index after 24 to 48 hrs in presence of ciprofloxacin.
For test [16], the system named is Staphylococcus aureus. The test is described as follows: Inhibition of MDR1 in Staphylococcus aureus ATCC 29213 assessed as increase in accumulation of ampicillin by EtBr efflux using flow cytometer. On the technique in general: Flow cytometry measures light scatter and fluorescence of single cells or particles in a stream.
The test system of test [17] is Staphylococcus aureus. As to the kind of experiment: Inhibition of MDR1 in methicillin-resistant Staphylococcus aureus ATCC 335913 assessed as increase in accumulation of ampicillin by EtBr efflux using flow cytometer.
The subject of test [18] is Mycolicibacterium smegmatis MC2 155. As to the kind of experiment: Inhibition of MDR1 in Mycobacterium smegmatis ATCC MC2155 assessed as increase in accumulation of ampicillin by EtBr efflux using flow cytometer.
In test [19] the test system is Staphylococcus aureus. As to the kind of experiment: Inhibition of MDR1 in Staphylococcus aureus ATCC 29213 assessed as increase in accumulation of kanamycin by EtBr efflux using flow cytometer.
In test [20] the test system is Staphylococcus aureus. As to the kind of experiment: Inhibition of MDR1 in methicillin-resistant Staphylococcus aureus ATCC 335913 assessed as increase in accumulation of kanamycin by EtBr efflux using flow cytometer.
Test [21] concerns Mycolicibacterium smegmatis MC2 155. The test is described as follows: Inhibition of MDR1 in Mycobacterium smegmatis ATCC MC2155 assessed as increase in accumulation of kanamycin by EtBr efflux using flow cytometer.
In test [22] the test system is Staphylococcus aureus. The test is described as follows: Inhibition of MDR1 in Staphylococcus aureus ATCC 29213 assessed as increase in accumulation of chloramphenicol by EtBr efflux using flow cytometer.
In test [23] the test system is Staphylococcus aureus. As to the kind of experiment: Inhibition of MDR1 in methicillin-resistant Staphylococcus aureus ATCC 335913 assessed as increase in accumulation of chloramphenicol by EtBr efflux using flow cytometer.
Test [24] deals with Mycolicibacterium smegmatis MC2 155. The test is described as follows: Inhibition of MDR1 in Mycobacterium smegmatis ATCC MC2155 assessed as increase in accumulation of chloramphenicol by EtBr efflux using flow cytometer.
For test [25], the system named is Staphylococcus aureus. As to the kind of experiment: Inhibition of MDR1 in Staphylococcus aureus ATCC 29213 assessed as increase in accumulation of ciprofloxacin by EtBr efflux using flow cytometer.
In test [26] the test system is Staphylococcus aureus. As to the kind of experiment: Inhibition of MDR1 in methicillin-resistant Staphylococcus aureus ATCC 335913 assessed as increase in accumulation of ciprofloxacin by EtBr efflux using flow cytometer.
Test [27] relates to Mycolicibacterium smegmatis MC2 155. The test is described as follows: Inhibition of MDR1 in Mycobacterium smegmatis ATCC MC2155 assessed as increase in accumulation of ciprofloxacin by EtBr efflux using flow cytometer.

Regarding `CC1(C)S[C@@H]2[C@H](NC(=O)[C@H](N)c3ccccc3)C(=O)N2[C@H]1C(=O)O` [AMPICILLIN], the MIC – broadly, the lowest concentration that inhibits growth of the organism – stood at 5 mg/L in the test on Staphylococcus aureus [1], 200 mg/L in the test on Staphylococcus aureus [2] and 250 mg/L in test [3].

For `O=C(N[C@H](CO)[C@H](O)c1ccc([N+](=O)[O-])cc1)C(Cl)Cl` [CHLORAMPHENICOL], the MIC against Staphylococcus aureus [1] stood at 5 mg/L; against Staphylococcus aureus [2], 100 mg/L; in test [3], 10 mg/L.

Take `O=C(O)c1cn(C2CC2)c2cc(N3CCNCC3)c(F)cc2c1=O` [CIPROFLOXACIN]: the MIC in the test on Staphylococcus aureus [1] was 0.25 mg/L; in the test with Staphylococcus aureus [2], 0.25 mg/L; in test [3] it was 0.5 mg/L.

On to `NC[C@H]1O[C@H](O[C@H]2[C@H](O)[C@@H](O[C@H]3O[C@H](CO)[C@@H](O)[C@H](N)[C@H]3O)[C@H](N)C[C@@H]2N)[C@H](O)[C@@H](O)[C@@H]1O` [KANAMYCIN], for which the MIC against Staphylococcus aureus [1] was 10 mg/L; against Staphylococcus aureus [2] it was 100 mg/L; in [3], 0.5 mg/L.

`Cc1ccc(-c2cc(C(F)(F)F)nn2-c2ccc(S(N)(=O)=O)cc2)cc1` [CELECOXIB]: the MIC (in the test on Staphylococcus aureus [1]; against Staphylococcus aureus [2]; in test [3]) was over 100 µM each time. In addition, the fractional inhibitory concentration index (FICI) came out at 0.281 with Staphylococcus aureus [4]; 0.312 in the test with Staphylococcus aureus [5]; 0.0665 in test [6]; 0.531 in the test on Staphylococcus aureus [7]; 0.312 in the test with Staphylococcus aureus [8]; 0.312 in test [9]. For the same compound, the fractional inhibitory concentration index (FICI) in the test with Staphylococcus aureus [10] worked out at 0.281; in the test with Staphylococcus aureus [11], 0.312; in test [12], 0.562; in the test with Staphylococcus aureus [13], 0.281; in the test with Staphylococcus aureus [14], 0.312; in test [15], 0.188. In addition, the inhibition result (in the test on Staphylococcus aureus [16]; in the test with Staphylococcus aureus [17]; in [18]; in the test on Staphylococcus aureus [19]; in the test on Staphylococcus aureus [20]; in test [21]) was “Dose-dependent effect” throughout. The inhibition entry (in the test on Staphylococcus aureus [22]; in the test with Staphylococcus aureus [23]; in test [24]; in the test on Staphylococcus aureus [25]; with Staphylococcus aureus [26]; in [27]) was “Dose-dependent effect” in each case.
